This is an account of results in patent US6384030B1, “Water soluble azoles as broad-spectrum antifungals” (priority 1998, dated 2002).

The conditions of series [1]: Saksena et al., Bioorganic & Medicinal Chemistry Letters (1995), 5(2), 127-132; cited from earlier work.
A short description of series [2]: Water solubility (example D1). Type of series: physicochemical. The settings on record: aqueous buffer, thermodynamic from solid; water buffered with 0.1 M citric acid and 0.2 M Na2HPO4 (pH =4); shaken 1 day at room temperature; UV.
Series [3] has as its system Candida spp. As to the kind of experiment: Minimum fungicidal concentration (example C2). It counts as cell-based. To be noted: 24 Candida isolates; RPMI 1640 buffered with MOPS, 2% glucose; subculture on Sabouraud glucose agar; read-out: Geometric mean minimum fungicidal concentrations. As for the experimental part:
(§1) A panel of 24 Candida isolates, 8 isolates of Aspergillus spp., 8 dermatophytes, 10 Zygomycetes, 10 Fusarium spp., 2 Cryptococcus neoformans and 8 dematiaceous hyphomycetes was used.
(§2) Inocula were prepared as in example C1 but the culture medium used in this test was RPMI 1640 buffered with MOPS, with 2% glucose (Odds, F. C., Antimicrobial Agents and Chemotherapy, 1995, 39, 2051-2060). Test compounds were added to the medium from DMSO solutions to give final concentrations in the series 10, 3.2, 1.0, 0.32, 0.10, 0.032, 0.010,0.0032 and 0.0010 μM. Incubation times and temperatures were as in example C1. Once the microdilution plates had been read for growth turbidity spectrophotometrically, samples of material were removed from the test cultures to inoculate 10 μl volumes on plates of Sabouraud glucose agar. The plates were incubated at 37° C. for 48 hours for yeasts or at other times and temperatures for other species. Geometric mean minimum fungicidal concentrations in μM which were determined as the lowest concentrations of the test compound that completely or substantially eliminated reappearance of fungal growth on the Sabouraud plates

In series [4] the test system is Fusarium spp. The experiment in a line: Minimum fungicidal concentration (example C2). Type of series: cell-based. To be noted: 10 Fusarium spp.; RPMI 1640 buffered with MOPS, 2% glucose; subculture on Sabouraud glucose agar; read-out: Geometric mean minimum fungicidal concentrations. Here is the method:
as §1, §2

Series [5] relates to Zygomycetes. The experiment in a line: Minimum fungicidal concentration (example C2). It counts as cell-based. To be noted: 10 Zygomycetes; RPMI 1640 buffered with MOPS, 2% glucose; subculture on Sabouraud glucose agar; read-out: Geometric mean minimum fungicidal concentrations. As for the experimental part: as §1, §2
The test system of series [6] is Candida spp. The experiment in a line: Fungal susceptibility, Panel 1 (example C1). Type of series: cell-based. The settings on record: Panel 1: 8 isolates of Candida spp. incl. an azole-resistant C. albicans strain; CYG broth; 37° C. for 48 hours; growth below 35% of control; read-out: geometric mean minimum inhibitory concentration-value (MIC).
For series [7], the system named is other fungi (3 dermatophyte isolates, Aspergillus migatus, Cryptococcus neoformans, Sporothrix schenckii). As to the kind of experiment: Fungal susceptibility, Panel 2 (example C1). Type of series: cell-based. The settings on record: Panel 2: 6 other fungi (3 dermatophytes, Aspergillus, Cryptococcus neoformans, Sporothrix schenckii); CYG broth; growth below 35% of control.

Values after ≈ are worked out from the molar mass of the structure shown.

In the case of `CN(C)CCn1ncn(-c2ccc(N3CCN(c4ccc(OC[C@@H]5CO[C@@](Cn6cncn6)(c6ccc(F)cc6F)C5)cc4)CC3)cc2)c1=O` (relative stereo) [(3R-cis)-4-[4-[4-[4-[[5-(2,4-difluorophenyl)tetrahydro-5-(1H-1,2,4-triazol-1-ylmethyl)-3-furanyl]methoxy]phenyl]-1-piperazinyl]phenyl]-2-[2-(dimethylamino)ethyl]-2,4-dihydro-3H-1,2,4-triazol-3-one], in series [1], the “activity as antifungal compared to SCH 51048” value is recorded as “profoundly less active”.

Turning to `C[C@@H](N[C@H](C)[C@H](C)n1ncn(-c2ccc(N3CCN(c4ccc(OC[C@@H]5CO[C@@](Cn6cncn6)(c6ccc(F)cc6F)O5)cc4)CC3)cc2)c1=O)c1ccccc1` (relative stereo) [Compound 86, [2S-[2α,4α[(R*,S*)(S*)]]]-4-[4-[4-[4-[[2-(2,4-difluoropheny)-2-(1H-1,2,4-triazol-1-yl-methyl)-1,3-dioxolan-4-yl]methoxy]phenyl]-1-piperazinyl]phenyl]-2,4-dihydro-2-[2-[(1-phenylethyl)amino]-1-methylpropyl]-3H-1,2,4-triazol-3-one], the solubility – broadly, how much of the substance goes into solution per volume – at 1 day in series [2] is above 100 µg/mL. Besides, the MFC in series [3], in series [4] and in series [5] was 1 to 10 µM (≈ 0.792 to 7.92 µg/mL) each time. In addition, the MIC in series [6] and in series [7] was 0.01 to 1 µM (≈ 0.00792 to 0.792 µg/mL) each time.
